According to patent publication US6800674B2, “Anthraquinone compound and water-based ink-jet recording ink containing the compound” (Mitsui Chemicals, Inc., priority 2000, dated 2004):

Tests used:
Format in all cases: physicochemical
[1] = Evaluation of light fastness (xenon fadeometer, OD2); settings: for E (Evaluation of light fastness): aqueous ink, ink production process Example 1, OD2 after 100 hours of irradiation
Procedure: (§1) Glycerin and water were added to the dispersion (A) of colored resin fine particles to obtain aqueous ink having a solid content of 15% by weight. This aqueous ink was used, and filled in an ink cartridge for a piezo-type ink jet printer, and printing and image recording were conducted with the same printer. The test was conducted on the following items.
(E) Evaluation of Light Fastness
Printing density (OD value) was measured using a xenon fadeometer (manufactured by Suga Shikenki) before irradiation and after 100 hours of irradiation. Light fastness was evaluated upon comparing OD2.
OD2=(OD value after irradiation)/(OD value before irradiation)×100[%]

[2] = Evaluation of emulsification (visual, in production of emulsion ink); settings: ink produced as in Example 1
Procedure: as §1
(A) Evaluation of Emulsification
The emulsification condition in the production of emulsion ink was visually observed, and evaluated.

[3] = Solvent solubility of the coloring matter; settings: for solubility of the coloring matter (in words): ink produced as in Example 1
[4] = Evaluation of water resistance (OD1 after/before dipping in water); settings: aqueous ink, OD1 after dipping in water and air-drying
Procedure: as §1
(D) Evaluation of Water Resistance
With respect to a printed portion of a plain paper having a recorded image thereon for test, printing density (OD value) was measured with a reflection densitometer before dipping in water and after dipping in water and air-drying. Water resistance was evaluated upon comparing OD1.
OD1=(OD value after dipping in water and air-drying)/(OD value before dipping in water)×100[%]

[5] = Absorption in toluene solution
[6] = Evaluation of light fastness (xenon fadeometer, OD2); settings: aqueous ink, ink production process Example 2; OD2 after 100 hours of irradiation
[7] = ink production process Example 1
[8] = ink production process Example 2

E (Evaluation of light fastness) [1] | solubility of the coloring matter (in words) [3] | D (Evaluation of water resistance) [4, 7] | light fastness (in words) [1] | gram absorption coefficient (εg) [5] | maximum absorption wavelength (λmax) [5] [nm] | solubility in toluene ([3]; toluene, room temperature) [%] | D (Evaluation of water resistance) [4, 8] | E (Evaluation of light fastness) [6] | SMILES | evaluation of emulsification (in words) [2]
X (OD value is less than 50%.) | low | Δ (OD value is 50 to less than 70%.) | extremely bad | – | – | – | – | – | COc1cc(N)c2c(c1N)C(=O)c1ccccc1C2=O [Comparative Example 2, reference compound] | –
X (OD value is less than 50%.) | low | ◯ (OD value is 70 to less than 80%.) | extremely bad | – | – | – | – | – | CNc1cccc2c1C(=O)c1ccccc1C2=O [Comparative Example 3, reference compound] | –
⊚⊚ (OD value is 90 to 100%.) | – | ⊚⊚ (OD value is 90 to 100%.) | – | 30,200 ml/g·cm | 517 | ≥ 40 | ⊚⊚ (OD value is 90 to 100%.) | ⊚⊚ (OD value is 90 to 100%.) | CCCCN(CCCC)c1cccc(Oc2cc(O)c3c(c2N)C(=O)c2ccccc2C3=O)c1 [compound 9] | –
⊚ (OD value is 80 to less than 90%.) | – | ⊚ (OD value is 80 to less than 90%.) | – | – | – | – | ⊚ (OD value is 80 to less than 90%.) | ⊚ (OD value is 80 to less than 90%.) | CCN(CC)c1cccc(Oc2cc(O)c3c(c2N)C(=O)c2ccc(OC)cc2C3=O)c1 [compound 16] | –
⊚⊚ (OD value is 90 to 100%.) | – | ⊚⊚ (OD value is 90 to 100%.) | – | – | – | – | ⊚⊚ (OD value is 90 to 100%.) | ⊚⊚ (OD value is 90 to 100%.) | CCCCCCN(CCCCCC)c1cccc(Oc2cc(O)c3c(c2N)C(=O)c2cccc(C)c2C3=O)c1 [compound 18] | –

SMILES | E (Evaluation of light fastness) [1] | solubility of the coloring matter (in words) [3] | D (Evaluation of water resistance) [4, 7] | light fastness (in words) [1] | gram absorption coefficient (εg) [5] | maximum absorption wavelength (λmax) [5] [nm] | solubility in toluene ([3]; toluene, room temperature) [%] | D (Evaluation of water resistance) [4, 8] | E (Evaluation of light fastness) [6] | evaluation of emulsification (in words) [2]
O=C1c2ccccc2C(=O)c2c1ccc(O)c2O [Comparative Example 1, reference compound] | X (OD value is less than 50%.) | low | X (OD value is less than 50%.) | – | – | – | – | – | – | poor emulsification
